Data as given in publication PMC3682544, “Structural Analysis of Collagen Type I Interactions with Human Fibronectin Reveals a Cooperative Binding Mode” (The Journal of Biological Chemistry, 2013).
Read-outs that look alike come from different tables or passages of the source. Square brackets hold non-standard residues; d marks the D form. Ends that are not written are not given here. Peptide text beside a SMILES is read from it. * marks the point of attachment. 5FAM = O=C1OC2(c3ccc(O)cc3Oc3cc(O)ccc32)c2ccc(C(=O)*)cc21; Hyp = O=C(O)[C@@H]1C[C@@H](O)CN1

Key:
[1] = target: collagen type I alpha1 peptide B, G772-G820, 5-carboxyfluorescein labelled; test: fluorescence polarisation; 75 nM 5-carboxyfluorescein-labelled peptide, increasing concentrations of protein, 96-well plates, 25 °C, PBS; single binding model
[2] = target: collagen type I alpha1 peptide A, G70-G118, 5-carboxyfluorescein labelled; test: as above
[3] = target: collagen type I alpha2 peptide D, G772-G820, 5-carboxyfluorescein labelled; test: as above
[4] = target: collagen type I alpha2 peptide C, Q72-G118, 5-carboxyfluorescein labelled; test: as above
[5] = target: T1, ^8–9FnI (FN residues 516–608) (Homo sapiens, UniProt P02751, N528Q/R534K); settings: NMR titration; cited from earlier work
T1 construct: and 516–608 (^8–9FnI); made in house
Excerpt: TABLE 1 KD values for collagen I peptide binding to FN fragments α1 and α2 chain numbering is taken to begin at the estimated start of the helical region. “O” in peptide sequences denotes 4-hydroxyproline. NMR, ^1H-^15N heteronuclear single quantum correlation NMR titrations; FA, fluorescence polarization titrations using N-terminal 5-carboxyfluorescein labeling. In titrations where no binding was | column: KD / ^8–9FnI || To firmly establish the elusive molecular interplay between the GBD and the most common collagen (type I), we first need to understand the exact nature of the binding site. […] At a distance of ∼1/10 (D-period 1, peptides AN and CN) or 3/4 (D-period 4, peptides BN and DN) from the N terminus of the triple hel ... || FIGURE 3. GBD-binding sites on collagen type I. A, schematic representation of the collagen type I α1 and α2 chains and the two FN-binding sites at 1/10 and 3/4 sequence distance from the collagen N terminus. ^8–9FnI-binding sites (peptides AN, BN, CN, and DN) are shown in blue, with the sequences immediately C-terminal thereof (peptides AC, BC, CC, and DC) shown in red. Dissociation constants are indicated. Highlighted in green is the only site where the two GBD subfragments, ^6FnI^1–2FnII^7FnI and ^8–9FnI, bind collagen type I cooperatively. B, amino acid sequences of peptides A–D. Conserved ...
Target sequence in this assay (P02751 516-608 N528Q/R534K): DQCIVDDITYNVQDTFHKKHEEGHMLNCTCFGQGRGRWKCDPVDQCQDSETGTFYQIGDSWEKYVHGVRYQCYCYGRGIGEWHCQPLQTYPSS

[6] = target: T1, ^8–9FnI (FN residues 516–608); test: ^1H-^15N heteronuclear single quantum correlation NMR titrations with ^8–9FnI; format: binding; settings: NMR ^1H-^15N HSQC titration, PBS pH 7.2, 25 °C; for Kd: single binding event fit
Excerpt: (§1) FN fragments corresponding to residues 305–608 (GBD), 305–515 (^6FnI^1–2FnII^7FnI), and 516–608 (^8–9FnI) and bearing single amino acid substitutions to improve solubility and protein yields (H307D, N528Q, and R534K) were produced as described previously ([7], [26], [32]). Synthetic collagen peptides were purchased from GL Biochem (Shanghai, China); their sequences are provided in Table 1, and unless fluorescently tagged, they included a C-terminal tyrosine residue for UV determination of peptide concentration. Fluorescent peptides had 5-carboxyfluorescein attached to the N-terminal amine group.
(§2) NMR spectrometers used superconducting magnets (Oxford Instruments) at 950- and 500-MHz proton resonance frequencies (home-built or Bruker AVANCE II consoles and room temperature or cryogenic probe heads, respectively). Spectra were recorded in PBS (20 mM Na2HPO4 (pH 7.2) and 150 mM NaCl) with 1% 4,4-dimethyl-4-silapentane-1-sulfonic acid as a calibration standard. Experiment temperatures were optimized to avoid resonance broadening due to intermediate exchange phenomena and corresponded to 25 °C (^8–9FnI) or 37 °C (^6FnI^1–2FnII^7FnI). Sequential chemical shift assignments were performed earlier ([7], [26]). Analysis of spectral perturbations upon protein interactions and determination of equilibrium parameters were performed as described ([33]).

[7] = target: T2, ^6FnI^1–2FnII^7FnI (FN residues 305–515) (Homo sapiens, UniProt P02751, H307D); test: ^1H-^15N heteronuclear single quantum correlation NMR titrations with ^6FnI^1–2FnII^7FnI; format: binding; settings: NMR ^1H-^15N HSQC titration, chemical shift analysis, PBS pH 7.2, 37 °C
T2 construct: 305–515 (^6FnI^1–2FnII^7FnI); made in house
Excerpt: as §1, §2

[8] = target: fibronectin modules 8-9FnI, residues 516-608 (human) (UniProt P02751); test: NMR titration; 1H-15N HSQC of 8-9FnI, collagen peptide titrated in, PBS (20 mM Na2HPO4 pH 7.2, 150 mM NaCl), 25 °C; single binding event
[9] = target: T3, GBD (gelatin-binding domain, ^6FnI^1–2FnII^7–9FnI, residues 305–608) of human FN (Homo sapiens, UniProt P02751, H307D/N528Q/R534K); test: Fluorescence polarization titrations of 5-carboxyfluorescein-labelled collagen peptides with GBD; settings: FA: fluorescence polarization, 75 nM N-terminal 5-carboxyfluorescein peptide, increasing protein, PBS, 25 °C, single binding model
T3 construct: FN fragments corresponding to residues 305–608 (GBD); made in house
Excerpt: as §1
Fluorescence polarization measurements were performed at 25 °C in PBS using SpectraMax M5 (Molecular Devices) and PHERAstar FS (BMG Labtech) fluorometers. […] Differences in fluorescence polarization were fit using a single binding model in the program Origin (OriginLab) ([33]).

T3 sequence (P02751 305-608 H307D/N528Q/R534K): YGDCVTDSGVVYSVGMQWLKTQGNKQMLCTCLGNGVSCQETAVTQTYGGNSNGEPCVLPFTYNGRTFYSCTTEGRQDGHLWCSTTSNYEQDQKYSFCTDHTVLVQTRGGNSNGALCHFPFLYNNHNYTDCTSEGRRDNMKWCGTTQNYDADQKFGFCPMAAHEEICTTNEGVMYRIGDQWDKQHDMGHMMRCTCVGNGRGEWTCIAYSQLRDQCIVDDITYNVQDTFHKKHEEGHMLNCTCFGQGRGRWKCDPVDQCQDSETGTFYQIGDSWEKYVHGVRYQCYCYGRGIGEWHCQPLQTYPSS
T2 sequence (P02751 305-515 H307D): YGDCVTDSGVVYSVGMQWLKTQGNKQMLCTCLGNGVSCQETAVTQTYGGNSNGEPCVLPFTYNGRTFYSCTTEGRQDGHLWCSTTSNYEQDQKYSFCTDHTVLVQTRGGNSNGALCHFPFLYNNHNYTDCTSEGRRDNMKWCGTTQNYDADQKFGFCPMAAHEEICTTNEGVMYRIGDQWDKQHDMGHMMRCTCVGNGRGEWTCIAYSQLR

**Q.** For “gelatin-binding domain (GBD) of human fibronectin, 6FnI1-2FnII7-9FnI, residues 305-608 (from UniProt P02751 305-608) (domain or fragment)”, which Kd [1] is on record?
**A.** Its Kd is 15 µM.

**Q.** What about the Kd [2] of the same compound?
**A.** Its Kd is 98 µM.

**Q.** And the Kd [3]?
**A.** Its Kd is 6 µM.

**Q.** And the Kd [4]?
**A.** Its Kd is 26 µM.

**Q.** With “DN: Synthetic collagen type I α2 peptide 778–799 with C-terminal tyrosine (GAPGILGLPGSRGERGLPGVAGY; 4-hydroxyproline at peptide positions 3, 9 and 18 (printed O); C-terminal Tyr added for UV quantification)” as the compound, how does the Kd [5] read?
**A.** The Kd was 8 ± 2 µM.

**Q.** With `CC[C@H](C)[C@H](NC(=O)CNC(=O)[C@H](CCCCN)NC(=O)[C@H](Cc1ccccc1)NC(=O)CNC(=O)[C@@H]1C[C@@H](O)CN1C(=O)[C@H](CC(C)C)NC(=O)CNC(=O)[C@@H]1C[C@@H](O)CN1C(=O)[C@@H](NC(=O)CNC(=O)[C@@H]1C[C@@H](O)CN1C(=O)[C@H](Cc1ccccc1)NC(=O)CN)[C@@H](C)O)C(=O)N[C@@H](CCCNC(=N)N)C(=O)NCC(=O)N[C@@H](Cc1c[nH]cn1)C(=O)N[C@@H](CC(N)=O)C(=O)NCC(=O)N[C@@H](CC(C)C)C(=O)N[C@@H](CC(=O)O)C(=O)NCC(=O)N[C@@H](Cc1ccc(O)cc1)C(=O)O` [CN] (H-GF[Hyp]GT[Hyp]GL[Hyp]GFKGIRGHNGLDGY-OH) as the compound, how does the Kd [6] read?
**A.** Its Kd is 2000 ± 200 µM.

**Q.** With `CSCC[C@H](NC(=O)CNC(=O)[C@@H]1C[C@@H](O)CN1C(=O)[C@H](CC(C)C)NC(=O)CNC(=O)[C@H](C)NC(=O)[C@@H](NC(=O)CNC(=O)[C@@H]1C[C@@H](O)CN1C(=O)[C@H](CC(C)C)NC(=O)CN)[C@@H](C)O)C(=O)N[C@@H](CCCCN)C(=O)NCC(=O)N[C@@H](Cc1c[nH]cn1)C(=O)N[C@@H](CCCNC(=N)N)C(=O)NCC(=O)N[C@@H](Cc1ccccc1)C(=O)N[C@@H](CO)C(=O)NCC(=O)N[C@@H](CC(C)C)C(=O)N[C@@H](CC(=O)O)C(=O)NCC(=O)N[C@@H](Cc1ccc(O)cc1)C(=O)O` [AN] (H-GL[Hyp]GTAGL[Hyp]GMKGHRGFSGLDGY-OH) as the compound, how does the Kd [6] read?
**A.** The Kd was 143 ± 17.3 µM.

**Q.** Which “KD ^8–9FnI (NMR interaction regime, in words)” value [6] does the source give for `CC(C)C[C@H](NC(=O)CNC(=O)[C@H](CO)NC(=O)[C@@H](NC(=O)CNC(=O)[C@H](CCCNC(=N)N)NC(=O)[C@H](CCC(N)=O)NC(=O)CN)C(C)C)C(=O)N1C[C@H](O)C[C@H]1C(=O)NCC(=O)N[C@@H](CCC(N)=O)C(=O)N[C@@H](CCCNC(=N)N)C(=O)NCC(=O)N[C@@H](CCC(=O)O)C(=O)N[C@@H](CCCNC(=N)N)C(=O)NCC(=O)N[C@@H](Cc1ccccc1)C(=O)N1C[C@H](O)C[C@H]1C(=O)NCC(=O)N[C@@H](CC(C)C)C(=O)N1C[C@H](O)C[C@H]1C(=O)NCC(=O)N[C@@H](Cc1ccc(O)cc1)C(=O)O` [BN-S783V] (H-GQRGVSGL[Hyp]GQRGERGF[Hyp]GL[Hyp]GY-OH) here?
**A.** The value was “fast interaction regime”.

**Q.** What about the Kd [6] of the same compound?
**A.** The Kd was 96.5 ± 11.4 µM.

**Q.** Which Kd [7] does the source give for `CC(C)C[C@H](NC(=O)CNC(=O)[C@H](CC(=O)O)NC(=O)[C@H](CC(C)C)NC(=O)CNC(=O)[C@H](CC(N)=O)NC(=O)[C@H](Cc1c[nH]cn1)NC(=O)CN)C(=O)N[C@@H](CCCCN)C(=O)NCC(=O)N[C@@H](CCC(N)=O)C(=O)N1C[C@H](O)C[C@H]1C(=O)NCC(=O)N[C@@H](C)C(=O)N1C[C@H](O)C[C@H]1C(=O)NCC(=O)N[C@H](C(=O)N[C@@H](CCCCN)C(=O)NCC(=O)N[C@@H](CCC(=O)O)C(=O)N1C[C@H](O)C[C@H]1C(=O)NCC(=O)N[C@@H](C)C(=O)N1C[C@H](O)C[C@H]1C(=O)NCC(=O)N[C@@H](CCC(=O)O)C(=O)N[C@@H](CC(N)=O)C(=O)NCC(=O)N[C@@H](Cc1ccc(O)cc1)C(=O)O)C(C)C` [CC] (H-GHNGLDGLKGQ[Hyp]GA[Hyp]GVKGE[Hyp]GA[Hyp]GENGY-OH) here?
**A.** Its Kd is 248 ± 11.6 µM.

**Q.** With “collagen type I alpha1 peptide BN with Val783 changed to serine, G778-G799 with C-terminal tyrosine” as the compound, how does the Kd [8] read?
**A.** Its Kd is 97 µM.

**Q.** For “BN: Synthetic collagen type I α1 peptide 775–799 with C-terminal tyrosine (GLPGQRGVVGLPGQRGERGFPGLPGY; 4-hydroxyproline at peptide positions 3, 12, 21 and 24 (printed O); its leading GLO differs from the native GIA in peptide B. The text and PDB 3)”, which Kd [5] is on record?
**A.** Its Kd is 5 ± 1 µM.

**Q.** With “5FAM-GPQGIAGQRGVVGL[Hyp]GQRGERGF[Hyp]GL[Hyp]GPSGE[Hyp]GKQGPSGASGERGP[Hyp]G [B]” as the compound, how does the Kd [9] read?
**A.** The Kd was 15.2 ± 2 µM.

**Q.** With “5FAM-QGARGF[Hyp]GT[Hyp]GL[Hyp]GFKGIRGHNGLDGLKGQ[Hyp]GA[Hyp]GVKGE[Hyp]GA[Hyp]GENG [C]” as the compound, how does the Kd [9] read?
**A.** The Kd was 25.6 ± 2.6 µM.

**Q.** With “5FAM-GPQGLLGA[Hyp]GILGL[Hyp]GSRGERGL[Hyp]GVAGAVGEPGPLGIAGP[Hyp]GARGP[Hyp]G [D]” as the compound, how does the Kd [9] read?
**A.** Its Kd is 5.8 ± 1 µM.

**Q.** Which Kd [9] does the source give for “5FAM-GPQGARGL[Hyp]GTAGL[Hyp]GMKGHRGFSGLDGAKGDAGPAGPKGE[Hyp]GS[Hyp]GENG [A]” here?
**A.** Its Kd is 97.9 ± 8.2 µM.
